Results as given in PubChem BioAssay AID328 (DTP/NCI, 2004).
Values joined by “and” are separate entries in the source; they are usually repeats but may differ in a detail not shown here. Identical values can stand only once. Toxic doses and inconclusive results are not listed.

Test system: BDF1 mice, P388 leukemia ip, median survival T/C
Assay: NCI In Vivo Anticancer Drug Screen. Data for tumor model P388 Leukemia (intraperitoneal) in B6D2F1 (BDF1) mice
Details: endpoint: median survival time, higher = longer survival
How it was run: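 Mice carrying the transplantable tumour receive compound or vehicle. Survival is followed in each arm, and the treated measure is divided by the vehicle measure.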

[1] = dose: 25.0 mg/kg/injection, schedule: Q04DX003 (ip), vehicle: saline with Tween-80
[2] = dose: 100.0 mg/kg/injection, schedule: Q04DX003 (ip), vehicle: saline with Tween-80
[3] = dose: 6.25 mg/kg/injection, schedule: Q01DX009 (ip), vehicle: saline with Tween-80
[4] = dose: 12.5 mg/kg/injection, schedule: Q01DX009 (ip), vehicle: saline with Tween-80
[5] = dose: 25.0 mg/kg/injection, schedule: Q04DX003 (ip), vehicle: water
[6] = dose: 50.0 mg/kg/injection, schedule: Q04DX003 (ip), vehicle: water
[7] = dose: 100.0 mg/kg/injection, schedule: Q04DX003 (ip), vehicle: water
[8] = dose: 200.0 mg/kg/injection, schedule: Q04DX003 (ip), vehicle: water
[9] = dose: 400.0 mg/kg/injection, schedule: Q04DX003 (ip), vehicle: water
[10] = dose: 100.0 mg/kg/injection, schedule: Q04DX003 (ip), vehicle: saline
[11] = dose: 25.0 mg/kg/injection, schedule: Q01DX009 (ip), vehicle: saline with Tween-80
[12] = dose: 100.0 mg/kg/injection, schedule: Q01DX009 (ip), vehicle: saline with Tween-80
[13] = dose: 100.0 mg/kg/injection, schedule: Q01DX001 (ip), vehicle: Klucel (hydroxypropylcellulose) (HPC)
[14] = dose: 100.0 mg/kg/injection, schedule: Q04DX003 (ip), vehicle: Klucel (hydroxypropylcellulose) (HPC)
[15] = dose: 100.0 mg/kg/injection, schedule: Q01DX009 (ip), vehicle: Klucel (hydroxypropylcellulose) (HPC)
[16] = dose: 25.0 mg/kg/injection, schedule: Q01DX009 (ip), vehicle: saline
[17] = dose: 50.0 mg/kg/injection, schedule: Q01DX009 (ip), vehicle: saline
[18] = dose: 200.0 mg/kg/injection, schedule: Q04DX003 (ip), vehicle: Klucel (hydroxypropylcellulose) (HPC)
[19] = dose: 400.0 mg/kg/injection, schedule: Q04DX003 (ip), vehicle: Klucel (hydroxypropylcellulose) (HPC)

In the case of `C=CCC1(CCC)C(=O)NC(=O)NC1=O`, the T/C [1] is reported as 91 % of control, the T/C (dose: 50.0 mg/kg/injection, schedule: Q04DX003 (ip), vehicle: saline with Tween-80) is reported as 91 % of control and the T/C [2] is reported as 95 % of control.

With `O=C(CCl)c1ccc(O)c(O)c1` the T/C (dose: 3.12 mg/kg/injection, schedule: Q01DX009 (ip), vehicle: saline with Tween-80) was 109 % of control, the T/C (dose: 4.5 mg/kg/injection, schedule: Q04DX003 (ip), vehicle: saline with Tween-80) was 104 % of control and the T/C [3] was 109 % of control. The T/C (dose: 9.0 mg/kg/injection, schedule: Q04DX003 (ip), vehicle: saline with Tween-80) was 100 % of control, the T/C (dose: 12.5 mg/kg/injection, schedule: Q01DX009 (ip), vehicle: Klucel (hydroxypropylcellulose) (HPC)) was 106 % of control and 120 % of control and the T/C [4] was 122 % of control. The T/C (dose: 40.0 mg/kg/injection, schedule: Q01DX001 (ip), vehicle: saline) was 118 % of control.

With `ClCCN(CCCl)c1ccc(CNCCCNCc2ccc(N(CCCl)CCCl)cc2)cc1` the T/C (dose: 2.5 mg/kg/injection, schedule: Q01DX009 (ip), vehicle: saline sonified) was 160 % of control and the T/C (dose: 3.75 mg/kg/injection, schedule: Q01DX009 (ip), vehicle: saline sonified) was 170 % of control.

`ClCCN(CCCl)c1cc(OCc2ccccc2)cc(OCc2ccccc2)c1` was tested, and the T/C (dose: 6.25 mg/kg/injection, schedule: Q01DX009 (ip), vehicle: water) was 91 % of control, the T/C (dose: 12.5 mg/kg/injection, schedule: Q01DX009 (ip), vehicle: water) was 88 % of control and the T/C (dose: 25.0 mg/kg/injection, schedule: Q01DX009 (ip), vehicle: water) was 86 % of control. For the same compound, the T/C [5] was 91 % of control, the T/C (dose: 50.0 mg/kg/injection, schedule: Q01DX009 (ip), vehicle: water) was 88 % of control and the T/C [6] was 89 % of control. The T/C (dose: 100.0 mg/kg/injection, schedule: Q01DX009 (ip), vehicle: water) was 98 % of control, the T/C [7] was 121 % of control and the T/C (dose: 200.0 mg/kg/injection, schedule: Q01DX009 (ip), vehicle: water) was 92 % of control and 97 % of control. For the same compound, the T/C [8] was 97 % of control and the T/C [9] was 89 % of control.

For `Nc1ccc2c(-c3cccc([N+](=O)[O-])c3)cc(=O)[nH]c2n1`, the T/C [10] was 88 % of control, the T/C (dose: 200.0 mg/kg/injection, schedule: Q04DX003 (ip), vehicle: saline) was 87 % of control and the T/C (dose: 400.0 mg/kg/injection, schedule: Q04DX003 (ip), vehicle: saline) was 87 % of control.

For `CN(C)N=Nc1ccccc1Cl`, the T/C [11] was 119 % of control and the T/C [12] was 157 % of control.

For `Cc1[nH]c2cc(Br)ccc2c1/C=N/NC(N)=S`, the T/C (dose: 25.0 mg/kg/injection, schedule: Q01DX001 (ip), vehicle: Klucel (hydroxypropylcellulose) (HPC)) was 107 % of control, the T/C (dose: 50.0 mg/kg/injection, schedule: Q01DX001 (ip), vehicle: Klucel (hydroxypropylcellulose) (HPC)) was 102 % of control and the T/C [13] was 103 % of control.

With `CN(C)c1ccc(C(N)=O)cn1` the T/C (dose: 0.51 mg/kg/injection, schedule: Q01DX009 (ip), vehicle: saline) was 95 % of control, the T/C (dose: 1.03 mg/kg/injection, schedule: Q01DX009 (ip), vehicle: saline) was 115 % of control and the T/C (dose: 2.0 mg/kg/injection, schedule: Q01DX009 (ip), vehicle: saline) was 90 % of control. The T/C (dose: 2.06 mg/kg/injection, schedule: Q01DX009 (ip), vehicle: saline) was 100 % of control, the T/C (dose: 3.0 mg/kg/injection, schedule: Q04DX003 (ip), vehicle: saline) was 100 % of control and the T/C (dose: 3.13 mg/kg/injection, schedule: Q01DX009 (ip), vehicle: saline) was 100 % of control. For the same compound, the T/C (dose: 4.12 mg/kg/injection, schedule: Q01DX009 (ip), vehicle: saline) was 112 % of control, the T/C (dose: 4.7 mg/kg/injection, schedule: Q01DX009 (ip), vehicle: saline) was 86 % of control and the T/C (dose: 6.0 mg/kg/injection, schedule: Q04DX003 (ip), vehicle: saline) was 100 % of control. The T/C (dose: 12.0 mg/kg/injection, schedule: Q04DX003 (ip), vehicle: saline) was 109 % of control, the T/C (dose: 17.0 mg/kg/injection, schedule: Q04DX003 (ip), vehicle: saline) was 118 % of control and the T/C (dose: 40.0 mg/kg/injection, schedule: Q04DX003 (ip), vehicle: saline) was 95 % of control.

`CCCCCCCC(=O)Nc1c(C)cccc1C` was tested, and the T/C [2] was 100 % of control, the T/C (dose: 200.0 mg/kg/injection, schedule: Q04DX003 (ip), vehicle: saline with Tween-80) was 100 % of control and the T/C (dose: 400.0 mg/kg/injection, schedule: Q04DX003 (ip), vehicle: saline with Tween-80) was 95 % of control.

For `N#Cc1cnc2n(c1=N)CCCCC2`, the T/C [14] was 94 % of control.

`COC(=O)CC12CC3(C)CC(C)(C1)CC(CC(=O)OC)(C3)C2` was tested, and the T/C (dose: 50.0 mg/kg/injection, schedule: Q01DX009 (ip), vehicle: saline with Tween-80) was 102 % of control, the T/C [12] was 102 % of control and the T/C (dose: 200.0 mg/kg/injection, schedule: Q01DX009 (ip), vehicle: saline with Tween-80) was 117 % of control.

In the case of `O=C(Nc1ccc([N+](=O)[O-])cc1)OCC#CC#CCOC(=O)Nc1ccc([N+](=O)[O-])cc1`, the T/C (dose: 50.0 mg/kg/injection, schedule: Q01DX009 (ip), vehicle: Klucel (hydroxypropylcellulose) (HPC)) is reported as 100 % of control and the T/C [15] is reported as 100 % of control.

For `CC(C)C(=O)c1ccco1`, the T/C (dose: 6.25 mg/kg/injection, schedule: Q04DX003 (ip), vehicle: saline with Tween-80) was 95 % of control, the T/C (dose: 12.5 mg/kg/injection, schedule: Q04DX003 (ip), vehicle: saline with Tween-80) was 100 % of control and the T/C [1] was 90 % of control.

With `COc1ccc(-c2cc(C)n(C)[n+]2C)cc1` the T/C [4] was 103 % of control and the T/C [11] was 109 % of control.

In the case of `CNC(=O)c1n[nH]c(C)c1[N+](=O)[O-]`, the T/C [5] is reported as 101 % of control, the T/C [6] is reported as 106 % of control and the T/C [7] is reported as 114 % of control. For the same compound, the T/C [8] was 97 % of control and the T/C [9] was 87 % of control.

In the case of `CC1Cc2ccccc2SC1(C)C` (stereo not given), the T/C (dose: 12.5 mg/kg/injection, schedule: Q01DX009 (ip), vehicle: saline) is reported as 101 % of control, the T/C [16] is reported as 114 % of control and the T/C [17] is reported as 115 % of control.

With `CC(C)CCOC(=O)Cc1ccccc1` the T/C [15] was 100 % of control, the T/C [14] was 90 % of control and the T/C (dose: 200.0 mg/kg/injection, schedule: Q01DX009 (ip), vehicle: Klucel (hydroxypropylcellulose) (HPC)) was 115 % of control. For the same compound, the T/C [18] was 113 % of control, the T/C (dose: 400.0 mg/kg/injection, schedule: Q01DX009 (ip), vehicle: Klucel (hydroxypropylcellulose) (HPC)) was 115 % of control and the T/C [19] was 118 % of control.

In the case of `O=C(O)CCSCCC(=O)O`, the T/C [13] is reported as 104 % of control, the T/C [14] is reported as 104 % of control and the T/C (dose: 200.0 mg/kg/injection, schedule: Q01DX001 (ip), vehicle: Klucel (hydroxypropylcellulose) (HPC)) is reported as 108 % of control. For the same compound, the T/C [18] was 100 % of control, the T/C (dose: 400.0 mg/kg/injection, schedule: Q01DX001 (ip), vehicle: Klucel (hydroxypropylcellulose) (HPC)) was 116 % of control and the T/C [19] was 113 % of control.

For `CC(=O)NC(Cc1ccc(N(CCCl)CCCl)cc1)C(=O)NC(CC(C)C)C(=O)O` (stereo not given), the T/C (dose: 20.0 mg/kg/injection, schedule: Q04DX003 (ip), vehicle: other) was 152 % of control, the T/C (dose: 40.0 mg/kg/injection, schedule: Q04DX003 (ip), vehicle: other) was 203 % of control and the T/C (dose: 80.0 mg/kg/injection, schedule: Q04DX003 (ip), vehicle: other) was 239 % of control. For the same compound, the T/C (dose: 160.0 mg/kg/injection, schedule: Q04DX003 (ip), vehicle: other) was 104 % of control.

In the case of `CCOC(=O)/C(C#N)=N\O`, the T/C [16] is reported as 100 % of control, the T/C (dose: 25.0 mg/kg/injection, schedule: Q04DX003 (ip), vehicle: saline) is reported as 113 % of control and the T/C [17] is reported as 120 % of control. The T/C (dose: 50.0 mg/kg/injection, schedule: Q04DX003 (ip), vehicle: saline) was 104 % of control and the T/C [10] was 95 % of control.

With `COC(=O)CCSC(c1ccccc1)(c1ccccc1)c1ccccc1` the T/C (dose: 87.0 mg/kg/injection, schedule: Q01DX009 (ip), vehicle: Klucel (hydroxypropylcellulose) (HPC)) was 96 % of control.

With `CC12CC[C]([Hg][I])(CC1)C2(C)C` the T/C (dose: 3.13 mg/kg/injection, schedule: Q01DX009 (ip), vehicle: saline with Tween-80) was 121 % of control, the T/C [3] was 121 % of control and the T/C [4] was 114 % of control.
